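Growth conditions: 96-well plates. Treatment: test compound, 48 hours, 5 concentrations. Analysis: linear interpolation between bracketing concentrations; unreached endpoints set to highest concentration. GI50 = concentration required for 50% inhibition of growth.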 Activity calls are given as the source filed them. No stated cut-off is given here; in the data, active = GI50 up to about 1.1 µM and inactive = higher.
Columns and labels:
Assay in all cases: growth of human tumour cells (NCI), 48 h
[1] = test system: 786-0
[2] = test system: A549
[3] = test system: CAKI-1
[4] = test system: COLO 205
[5] = test system: HOP-62
[6] = test system: HT-29
[7] = test system: IGROV-1
[8] = test system: MOLT-4
[9] = test system: Malme-3M
[10] = test system: NCI-H226
[11] = test system: NCI-H23
[12] = test system: NCI-H522
[13] = test system: OVCAR-5
[14] = test system: RPMI-8226
[15] = test system: SF-295
[16] = test system: SK-MEL-28
[17] = test system: SK-OV-3
[18] = test system: SNB-75
[19] = test system: SW-620
[20] = test system: UO-31

SMILES | GI50 [1] | GI50 [2] | GI50 [3] | GI50 [4] | GI50 [5] | GI50 [6] | GI50 [7] | GI50 [8] | GI50 [9] | GI50 [10] | GI50 [11] | GI50 [12] | GI50 [13] | GI50 [14] | GI50 [15] | GI50 [16] | GI50 [17] | GI50 [18] | GI50 [19] | GI50 [20]
CC12CCC(O)CC1CCC1C2CCC2(C)C(C(=O)CC(O)C(F)(F)F)CCC12 (stereo not given) | 7.46 µM (inactive) | 28.9 µM (inactive) | 21 µM (inactive) | 12.2 µM (inactive) | 27.7 µM (inactive) | 3.97 µM (inactive) | > 67.8 µM (inactive) | 9.35 µM (inactive) | 51.3 µM (inactive) | 40 µM (inactive) | 40.9 µM (inactive) | 27.1 µM (inactive) | 26.4 µM (inactive) | 4.04 µM (inactive) | 8.73 µM (inactive) | 73.5 µM (inactive) | 27 µM (inactive) | 19.3 µM (inactive) | 40.5 µM (inactive) | 3.99 µM (inactive)
CC(NC(=O)c1ccc(OP(=O)(OCC2=CC(=O)c3ccccc3C2=O)N(C)CCCCCl)cc1)c1ccc(OCC2CCCCC2)c(C(N)=O)c1 (stereo not given) | 14.6 µM (inactive) | 1.67 µM (inactive) | 9.44 µM (inactive) | 7.28 µM (inactive) | 18 µM (inactive) | 15.1 µM (inactive) | 9.66 µM (inactive) | 12.3 µM (inactive) | 1.88 µM (inactive) | 11.1 µM (inactive) | 2.7 µM (inactive) | 11.8 µM (inactive) | 21.4 µM (inactive) | 11.2 µM (inactive) | 5.06 µM (inactive) | 14.2 µM (inactive) | 15.4 µM (inactive) | 0.0122 µM (active) | 12.4 µM (inactive) | 10.2 µM (inactive)
CN(CCN(C)CCN(C)C(=O)Cc1ccc(Cl)c(Cl)c1)CCN1CCCC1 | 19.5 µM (inactive) | 37 µM (inactive) | 35.2 µM (inactive) | 16.3 µM (inactive) | 25.4 µM (inactive) | 7.36 µM (inactive) | 31.1 µM (inactive) | 10.6 µM (inactive) | 20.5 µM (inactive) | 30.5 µM (inactive) | 30.5 µM (inactive) | 20.6 µM (inactive) | 37.5 µM (inactive) | 5.5 µM (inactive) | 19.6 µM (inactive) | 1.94 µM (inactive) | 46.8 µM (inactive) | 28 µM (inactive) | 20.3 µM (inactive) | 1.92 µM (inactive)
O=c1oc2ccccc2cc1-c1cn2cc(Cl)ccc2n1 | 1 µM (active) | 0.719 µM (active) | 0.422 µM (active) | 0.865 µM (active) | 0.714 µM (active) | 7.11 µM (inactive) | 0.685 µM (active) | 0.422 µM (active) | 0.458 µM (active) | 15.6 µM (inactive) | 3.09 µM (inactive) | 0.104 µM (active) | 10.1 µM (inactive) | 0.532 µM (active) | 0.535 µM (active) | 2.08 µM (inactive) | 0.773 µM (active) | 1.76 µM (inactive) | 0.361 µM (active) | 1.32 µM (inactive)
O=C1CSC(c2ccc(Cl)cc2Cl)N1c1ccc(Oc2ccc(Cl)cc2)c(Cl)c1 (stereo not given) | 17.5 µM (inactive) | 27 µM (inactive) | 22.4 µM (inactive) | 25.5 µM (inactive) | 23.8 µM (inactive) | 16.4 µM (inactive) | 28.1 µM (inactive) | 24.3 µM (inactive) | 16.9 µM (inactive) | 22.1 µM (inactive) | 27 µM (inactive) | 10.4 µM (inactive) | 33.3 µM (inactive) | 13.8 µM (inactive) | 22 µM (inactive) | 39.4 µM (inactive) | 30.7 µM (inactive) | 20.7 µM (inactive) | 36.5 µM (inactive) | 7.08 µM (inactive)
COC1=C(C(c2cc(OC)c(OC)c(OC)c2)c2cc3c(cc2OC)OCO3)C(=O)OC1 (stereo not given) | 26.1 µM (inactive) | 20.1 µM (inactive) | > 48.5 µM (inactive) | 23.8 µM (inactive) | 24.8 µM (inactive) | 20.5 µM (inactive) | 29.4 µM (inactive) | 44.2 µM (inactive) | 31.7 µM (inactive) | 28.4 µM (inactive) | 24.8 µM (inactive) | 7.8 µM (inactive) | 34.4 µM (inactive) | 46 µM (inactive) | 15.1 µM (inactive) | 12.7 µM (inactive) | 41.2 µM (inactive) | > 37.9 µM (inactive) | 27 µM (inactive) | 14.2 µM (inactive)
C=C(Nc1ccc(OC)cc1OC)C(=O)Cc1cccc[n+]1[O-] | > 100 µM (inactive) | > 100 µM (inactive) | > 100 µM (inactive) | > 100 µM (inactive) | > 100 µM (inactive) | > 100 µM (inactive) | > 100 µM (inactive) | > 100 µM (inactive) | > 100 µM (inactive) | > 100 µM (inactive) | > 100 µM (inactive) | > 100 µM (inactive) | > 100 µM (inactive) | > 100 µM (inactive) | > 100 µM (inactive) | > 100 µM (inactive) | > 100 µM (inactive) | > 100 µM (inactive) | > 100 µM (inactive) | > 100 µM (inactive)
CNNC(=NS(=O)(=O)c1cc(C#N)c(NNC)cc1S)NNC | > 10 µM (inactive) | > 10 µM (inactive) | > 10 µM (inactive) | > 10 µM (inactive) | > 10 µM (inactive) | > 10 µM (inactive) | > 10 µM (inactive) | > 10 µM (inactive) | > 10 µM (inactive) | > 10 µM (inactive) | > 10 µM (inactive) | > 10 µM (inactive) | > 10 µM (inactive) | > 10 µM (inactive) | > 10 µM (inactive) | > 10 µM (inactive) | > 10 µM (inactive) | > 10 µM (inactive) | > 10 µM (inactive) | > 10 µM (inactive)
O=C1c2ccccc2C(=O)c2cc(/N=N/c3c(O)ccc4ccccc34)ccc21 | > 100 µM (inactive) | > 100 µM (inactive) | > 100 µM (inactive) | > 100 µM (inactive) | 30.2 µM (inactive) | > 100 µM (inactive) | > 100 µM (inactive) | > 100 µM (inactive) | > 100 µM (inactive) | > 100 µM (inactive) | > 100 µM (inactive) | > 100 µM (inactive) | > 100 µM (inactive) | > 100 µM (inactive) | > 100 µM (inactive) | > 100 µM (inactive) | > 100 µM (inactive) | > 100 µM (inactive) | > 100 µM (inactive) | > 100 µM (inactive)
CN(/N=C/c1cccc2cccnc12)c1ccc([N+](=O)[O-])cc1[N+](=O)[O-] | 13.3 µM (inactive) | 48.5 µM (inactive) | 24.4 µM (inactive) | 86.3 µM (inactive) | 8.61 µM (inactive) | > 100 µM (inactive) | 24.5 µM (inactive) | > 100 µM (inactive) | 18.2 µM (inactive) | 24 µM (inactive) | 24.5 µM (inactive) | 16.4 µM (inactive) | 70.1 µM (inactive) | > 90.2 µM (inactive) | 13 µM (inactive) | > 88.1 µM (inactive) | 20.6 µM (inactive) | 10.1 µM (inactive) | 99.5 µM (inactive) | 37.3 µM (inactive)
COc1cc2c(cc1O)CC[C@@H]1C2CC[C@@]2(C)C1CC[C@@H]2O (stereo not given in full) | 2.07 µM (inactive) | 4.48 µM (inactive) | 13.5 µM (inactive) | 36.7 µM (inactive) | 2.28 µM (inactive) | 21 µM (inactive) | 5.51 µM (inactive) | 0.532 µM (active) | 0.771 µM (active) | 48.5 µM (inactive) | 2.05 µM (inactive) | 0.482 µM (active) | 37 µM (inactive) | 0.57 µM (active) | 3.16 µM (inactive) | 3.7 µM (inactive) | 3.22 µM (inactive) | 1.07 µM (active) | 0.635 µM (active) | 6.65 µM (inactive)
COc1ccc(NC(=O)C(=O)NO)c(OC)c1 | 16 µM (inactive) | 19.6 µM (inactive) | 13.8 µM (inactive) | 21 µM (inactive) | 19.9 µM (inactive) | 20.7 µM (inactive) | 15.4 µM (inactive) | 11.9 µM (inactive) | 23.8 µM (inactive) | 22.3 µM (inactive) | 18.6 µM (inactive) | 5.92 µM (inactive) | 19.5 µM (inactive) | 15.1 µM (inactive) | 14 µM (inactive) | 17.5 µM (inactive) | 19.5 µM (inactive) | 16.5 µM (inactive) | 18.7 µM (inactive) | 16.2 µM (inactive)
Cc1ncc([N+](=O)[O-])n1CC[N+](C)([O-])CCCCn1ccnc1[N+](=O)[O-] (stereo not given) | > 100 µM (inactive) | > 100 µM (inactive) | > 100 µM (inactive) | > 100 µM (inactive) | > 100 µM (inactive) | > 100 µM (inactive) | > 100 µM (inactive) | > 100 µM (inactive) | > 100 µM (inactive) | > 100 µM (inactive) | > 100 µM (inactive) | > 100 µM (inactive) | > 100 µM (inactive) | > 100 µM (inactive) | > 100 µM (inactive) | > 100 µM (inactive) | > 100 µM (inactive) | > 100 µM (inactive) | > 100 µM (inactive) | > 100 µM (inactive)
COc1ccc(-c2cc(=O)c3c(OC)c(O)c(OC)cc3o2)cc1 | 47.4 µM (inactive) | 42.5 µM (inactive) | 85.5 µM (inactive) | 49 µM (inactive) | 38.1 µM (inactive) | 35.5 µM (inactive) | 33 µM (inactive) | 59.3 µM (inactive) | 96.2 µM (inactive) | 70 µM (inactive) | 48.5 µM (inactive) | 17.9 µM (inactive) | > 100 µM (inactive) | 27.8 µM (inactive) | 30.8 µM (inactive) | > 100 µM (inactive) | 50.7 µM (inactive) | 21.8 µM (inactive) | 54.3 µM (inactive) | 30.7 µM (inactive)

Reference: ChEMBL document CHEMBL1201862, “PubChem BioAssay data set” (2004)
